ChEMBL document CHEMBL1201862, “PubChem BioAssay data set” (2004)
Activity calls are given as the source filed them.

Assays:
Cytochrome P450 2C9 = Cytochrome P450 2C9 (Homo sapiens, UniProt P11712)
Cytochrome P450 3A4 = Cytochrome P450 3A4 (Homo sapiens, UniProt P08684);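 note: CYP3A4 tested as one member of a cytochrome P450 panel screen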
Cytochrome P450 1A2 = biological target: T1, Cytochrome P450 1A2 (Homo sapiens, UniProt P05177);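 note: PubChem cytochrome P450 panel assay, CYP1A2 panel member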
T1 sequence (P05177 whole entry): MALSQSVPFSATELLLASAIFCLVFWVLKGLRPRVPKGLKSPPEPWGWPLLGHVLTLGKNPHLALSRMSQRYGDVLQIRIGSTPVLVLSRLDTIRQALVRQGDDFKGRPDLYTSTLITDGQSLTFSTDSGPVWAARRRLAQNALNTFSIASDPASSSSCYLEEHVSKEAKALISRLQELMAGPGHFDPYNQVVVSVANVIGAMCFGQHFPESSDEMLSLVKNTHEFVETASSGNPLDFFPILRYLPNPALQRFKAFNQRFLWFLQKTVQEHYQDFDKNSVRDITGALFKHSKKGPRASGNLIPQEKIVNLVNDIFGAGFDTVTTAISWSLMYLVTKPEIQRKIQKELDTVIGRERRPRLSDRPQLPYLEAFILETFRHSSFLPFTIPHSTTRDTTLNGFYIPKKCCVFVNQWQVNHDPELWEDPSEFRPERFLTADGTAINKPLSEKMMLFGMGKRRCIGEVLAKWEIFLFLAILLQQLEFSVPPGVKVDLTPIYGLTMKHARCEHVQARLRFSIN

[1] = NIH3T3 cell viability loss – ATP luminescence, mouse fibroblasts, counter-screen, dose response (AID 2010); type: functional, cell-based;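 note: cells exposed to compound for about 90 hours before reading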
[2] = Trypanosoma cruzi growth suppression in host cells – NIH3T3 host cells, beta-gal luminescence, confirmation (AID 2044); type: functional, cell-based;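 note: intracellular parasites grown in NIH/3T3 mouse fibroblasts as host cells; luminescent beta-galactosidase reporter signal from transgenic T. cruzi replicating inside host cells; inhibitors lower the luminescence signal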
cells = type: functional
[3] = biological target: T2, Corticotropin-releasing factor receptor 2/Corticotropin-releasing factor-binding protein (Homo sapiens, UniProt P24387+Q13324); experiment: activators of CRF receptor 2 with binding protein – uHTS hits, confirmation (AID 602473); type: functional; settings: read-out: EC50_Mean
T2 sequence (Q13324 whole entry): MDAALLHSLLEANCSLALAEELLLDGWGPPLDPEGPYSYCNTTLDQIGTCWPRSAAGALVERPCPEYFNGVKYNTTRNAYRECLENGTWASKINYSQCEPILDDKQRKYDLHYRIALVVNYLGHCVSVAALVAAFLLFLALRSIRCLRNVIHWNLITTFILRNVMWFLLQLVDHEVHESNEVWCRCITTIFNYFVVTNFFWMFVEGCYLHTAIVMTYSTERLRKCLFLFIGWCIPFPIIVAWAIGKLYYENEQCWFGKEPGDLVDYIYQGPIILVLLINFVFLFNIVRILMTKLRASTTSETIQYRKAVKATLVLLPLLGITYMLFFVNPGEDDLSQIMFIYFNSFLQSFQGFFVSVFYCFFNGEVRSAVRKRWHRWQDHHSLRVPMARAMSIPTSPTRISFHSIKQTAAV
T2 sequence (P24387 whole entry): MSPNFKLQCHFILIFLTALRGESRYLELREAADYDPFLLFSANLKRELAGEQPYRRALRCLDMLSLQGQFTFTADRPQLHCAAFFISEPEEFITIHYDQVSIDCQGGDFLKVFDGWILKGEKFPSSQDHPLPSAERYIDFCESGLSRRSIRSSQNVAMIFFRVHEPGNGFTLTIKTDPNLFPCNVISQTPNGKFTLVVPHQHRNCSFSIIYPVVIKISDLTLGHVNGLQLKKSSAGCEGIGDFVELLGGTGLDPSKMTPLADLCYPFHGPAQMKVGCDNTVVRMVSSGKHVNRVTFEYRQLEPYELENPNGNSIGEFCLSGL

[4] = Luminescence Cell-Based Dose Response HTS to Identify Activators of Luciferase Translation or Activity in H4 […] Cells. [Related pubchem assays: 1829 (Project Summary), 1814 (Primary HTS)]; type: functional
H4 = experiment: Luminescence Cell-Based Dose Response HTS to Identify Activators of 5'UTR Stem-Loop Driven Prion Protein mRNA Translation in H4 Neuroglioblastoma Cells. [Related pubchem assays: 1829 (Project Summary), 1814 (Primary HTS)]; type: functional; settings: Homo sapiens

Sequence of Cytochrome P450 3A4 (P08684 whole entry): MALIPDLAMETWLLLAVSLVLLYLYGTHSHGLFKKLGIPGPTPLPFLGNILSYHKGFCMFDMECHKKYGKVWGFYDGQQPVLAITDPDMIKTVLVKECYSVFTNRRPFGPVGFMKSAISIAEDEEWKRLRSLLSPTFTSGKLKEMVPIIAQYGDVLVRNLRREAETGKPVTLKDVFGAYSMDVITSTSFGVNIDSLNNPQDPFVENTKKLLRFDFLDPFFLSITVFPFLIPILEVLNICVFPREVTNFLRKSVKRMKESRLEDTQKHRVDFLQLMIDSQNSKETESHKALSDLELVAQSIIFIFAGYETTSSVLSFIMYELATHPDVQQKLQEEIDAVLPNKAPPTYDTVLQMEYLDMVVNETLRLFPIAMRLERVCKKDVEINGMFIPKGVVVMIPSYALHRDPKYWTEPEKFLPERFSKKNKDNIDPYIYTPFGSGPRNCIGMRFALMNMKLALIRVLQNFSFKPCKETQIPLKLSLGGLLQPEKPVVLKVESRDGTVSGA
Sequence of Cytochrome P450 2C9 (P11712 whole entry): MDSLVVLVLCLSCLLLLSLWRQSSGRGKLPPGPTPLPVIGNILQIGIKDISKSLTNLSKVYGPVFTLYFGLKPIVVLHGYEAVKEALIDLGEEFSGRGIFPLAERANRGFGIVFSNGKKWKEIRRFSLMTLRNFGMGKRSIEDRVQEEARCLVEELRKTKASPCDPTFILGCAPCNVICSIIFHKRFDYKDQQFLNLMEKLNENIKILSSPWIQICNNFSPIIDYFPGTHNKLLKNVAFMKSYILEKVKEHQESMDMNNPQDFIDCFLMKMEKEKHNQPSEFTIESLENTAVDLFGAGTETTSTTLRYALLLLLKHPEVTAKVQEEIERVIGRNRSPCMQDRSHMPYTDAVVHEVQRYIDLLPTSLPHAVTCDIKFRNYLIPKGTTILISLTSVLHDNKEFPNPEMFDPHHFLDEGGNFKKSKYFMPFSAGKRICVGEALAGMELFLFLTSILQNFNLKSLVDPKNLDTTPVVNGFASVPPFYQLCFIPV

COC(=O)[C@@H]1CC[C@H](C)[C@@H](c2ccc(C)cc2)N1C(=O)c1ccc(/C=N\O[C@@H](C)CN2CCCCc3nc(C)c(C)cc32)cc1
AC50 (Cytochrome P450 2C9): 3.16 µM (inconclusive)
AC50 (Cytochrome P450 3A4): 3.16 µM (inconclusive)

Cc1nc2cnc(Oc3ccccc3)nc2n(CCc2ccccc2)c1=O
AC50 (Cytochrome P450 1A2): 3.16 µM (inconclusive)
AC50 (Cytochrome P450 3A4): 20 µM (inconclusive)

O=C(N/N=C1/C[C@@H](O)[C@@H](O)[C@@H]2[C@H]3C(=O)N(c4ccc(F)cc4F)C(=O)[C@@H]3CC[C@@H]12)OCc1ccccc1
AC50 (Cytochrome P450 3A4): 3.98 µM (inconclusive)

Cc1ccc(C2=Nc3ccccc3S[C@@H](c3cccc([N+](=O)[O-])c3)C2)cc1
AC50 (Cytochrome P450 1A2): 2 µM (inconclusive)

CCOC(=O)c1c(NC(=O)Cn2cnc([N+](=O)[O-])n2)sc(C)c1C
EC50 [1]: > 30 µM (not active)
EC50 [2]: 0.191 µM (active)

Cc1ccc(C2=NN(C)c3nc4ccccc4n3C2)cc1
IC50 (cells): 8.22 µM (active)

Cc1ccc(NC(=O)CO/N=C/c2ccc(N(C)C)cc2)cc1
IC50 (cells): > 50 µM (active)

O=C1CCCN1CC(CN1CCOCC1)Sc1nnnn1-c1ccccc1 (stereo not given)
AC50 (Cytochrome P450 2C9): 6.31 µM (inconclusive)

O=C(Nc1ccccc1)[C@@]12C[C@@H]1/C(=N/O)c1ccccc1O2
AC50 (Cytochrome P450 2C9): 20 µM (inconclusive)

CN1CCN(CC(O)c2ccccc2)CC1 (stereo not given)
EC50 [1]: 31.2 µM (active)
EC50 [2]: 0.934 µM (active)

Cc1ccc(CSc2nnc([C@@H]3CCCN3)o2)cc1
AC50 (Cytochrome P450 2C9): 10 µM (inconclusive)
AC50 (Cytochrome P450 3A4): 3.55 µM (inconclusive)

O=C(NCc1ccccc1)C12CN(Cc3ccccc3)CC1C(c1cccc([N+](=O)[O-])c1)=NO2 (stereo not given)
AC50 (Cytochrome P450 1A2): 15.8 µM (inconclusive)

COc1ccccc1CNc1ncnc2ccc(-c3ccc(N(C)C)cc3)cc12
AC50 (Cytochrome P450 2C9): 0.631 µM (inconclusive)

O=C(NC1CC1)c1cccc2c1C(=O)c1ccc(N3CCC(Cc4ccccc4)CC3)cc1S2(=O)=O
EC50 [3]: 7.05 µM (active)

O=C(COc1ccc2ccccc2c1)N/N=C/c1ccccn1
IC50 (cells): > 50 µM (active)

C=CCCCCCCCCC(=O)Nc1cnc(O)nc1O
AC50 (Cytochrome P450 3A4): 10 µM (inconclusive)

COc1cc(-c2nc(-c3cc([N+](=O)[O-])ccc3C)c(-c3ccccc3)[nH]2)cc(OC)c1OC
EC50 [1]: > 60 µM (not active)
EC50 [2]: 0.561 µM (active)

Cc1nc2cnc(N(C)C)nc2n(C)c1=O
AC50 (Cytochrome P450 3A4): 15.8 µM (inconclusive)

COCCn1c(=O)c(-c2ccccc2)nc2cnc(Oc3cccc(Cl)c3)nc21
AC50 (Cytochrome P450 3A4): 20 µM (inconclusive)

Cc1c(Cl)cccc1NC(=O)C(=O)NNC(=O)c1ccccc1F
IC50 (cells): 15 µM (active)

c1ccc(C2CC2)c(OCC2=NCCN2)c1 [CIRAZOLINE]
AC50 (Cytochrome P450 1A2): 15.8 µM (inconclusive)

COc1ccc2nc(SCC(=O)Nc3ccc4c(c3)OCCO4)[nH]c2c1
AC50 (Cytochrome P450 3A4): 6.31 µM (inconclusive)

CO[C@@H]1COC(=O)C/C=C\[C@H](C)COC(=O)[C@H](Cc2ccccc2)NC(=O)C/C=C\[C@H]1C
AC50 (Cytochrome P450 3A4): 6.31 µM (inconclusive)

C=C1[C@@H](O)C2C=CC[C@H](C)C(=O)[C@@](C)(O)C=C[C@@H](OC(C)=O)[C@@]23C(=O)N[C@H](Cc2ccccc2)[C@@H]3[C@@H]1C (stereo not given in full)
AC50 (Cytochrome P450 2C9): 31.6 µM (inconclusive)
AC50 (Cytochrome P450 3A4): 15.8 µM (inconclusive)

CCN1CCc2c(sc(NC(=O)c3ccc(S(=O)(=O)N(CC)c4ccccc4)cc3)c2C(N)=O)C1
EC50 [3]: 4.85 µM (active)

O=S(=O)(c1ccccc1)N1CCC[C@@]2(CCN(Cc3nccs3)C2)C1
AC50 (Cytochrome P450 2C9): 31.6 µM (inconclusive)

O=c1c2ccccc2nc(SCc2ccccc2Cl)n1Cc1ccccc1
AC50 (Cytochrome P450 3A4): 15.8 µM (inconclusive)

COC[C@H]1OC(=O)c2coc3c2[C@@]1(C)C1=C(C3=O)[C@H]2CCC(=O)[C@@]2(C)C[C@H]1OC(C)=O
AC50 (Cytochrome P450 1A2): 31.6 µM (inconclusive)
AC50 (Cytochrome P450 3A4): 7.94 µM (inconclusive)

COC(=O)C1CC(=O)N(c2ccc(OCc3ccccc3Cl)cc2)C1 (stereo not given)
IC50 (cells): 2.2 µM (active)

CC1CCN(c2cc(N3CCC(C)CC3)c([N+](=O)[O-])cc2/C=C(\C#N)c2nn(-c3ccccc3)c(N)c2C#N)CC1
AC50 (Cytochrome P450 3A4): 3.98 µM (inconclusive)

Cn1c(=O)c(Oc2ccc(F)cc2)c(O)c2ccccc21
IC50 (cells): 1.87 µM (active)

CC(C)=CC(=O)OCC(=O)Nc1ncc(Cl)c(C)c1Cl
AC50 (Cytochrome P450 2C9): 0.0631 µM (inconclusive)

Cc1ccc(CN2CCN(/N=C/c3ccc(Cl)c([N+](=O)[O-])c3)CC2)cc1
EC50 [1]: > 60 µM (not active)
EC50 [2]: 1.31 µM (active)

COc1ccc(-n2c(=O)c(-c3cccs3)nc3cnc(Oc4ccccc4)nc32)cc1
AC50 (Cytochrome P450 2C9): 12.6 µM (inconclusive)

CN1CCC(NC(=O)Nc2ccc(Br)cc2)CC1
EC50 [1]: > 60 µM (not active)
EC50 [2]: 0.188 µM (active)

O=C(Nc1ccc(OC(=O)c2cccnc2)cc1)c1cccnc1
AC50 (Cytochrome P450 3A4): 12.6 µM (inconclusive)

CS(=O)(=O)N(CC(=O)Nc1cccc(F)c1)c1cccc([N+](=O)[O-])c1
AC50 (Cytochrome P450 3A4): 17.8 µM (inconclusive)

COC(=O)[C@@H]1CC[C@H](C)[C@@H](c2ccc(C)cc2)N1C(=O)c1ccc(/C=N\O[C@@H]2O[C@H](COC(C)=O)[C@H](OC(C)=O)[C@H](OC(C)=O)[C@H]2OC(C)=O)cc1
AC50 (Cytochrome P450 2C9): 1.58 µM (inconclusive)

CN1Cc2cccc3c2C(Cc2ccccc2S3)C1 (stereo not given)
EC50 [1]: > 30 µM (not active)
EC50 [2]: 0.451 µM (active)

c1nc(NCCN2CCOCC2)c2cc(-c3ccoc3)ccc2n1
AC50 (Cytochrome P450 3A4): 15.8 µM (inconclusive)

CCOc1cc(CNCCc2ccc(S(N)(=O)=O)cc2)cc(Cl)c1OCc1ccccc1
EC50 [1]: > 60 µM (not active)
EC50 [2]: 0.373 µM (active)

COc1cccc(NC(=S)N(Cc2ccc(C)cc2)Cc2ccccn2)c1
EC50 [1]: > 60 µM (not active)
EC50 [2]: 0.764 µM (active)

Cn1c(=O)c(-c2cc(F)cc(F)c2)nc2cnc(N3CCOCC3)nc21
AC50 (Cytochrome P450 1A2): 5.01 µM (inconclusive)

CC/C=C\CC[C@H](OC(=O)c1ccc(Br)cc1)C1=CCCCC1=O
AC50 (Cytochrome P450 2C9): 3.16 µM (inconclusive)
AC50 (Cytochrome P450 3A4): 3.98 µM (inconclusive)

CSc1cccc(CN2CCCC(CO)(Cc3cccc(Cl)c3)C2)c1 (stereo not given)
EC50 [1]: > 30 µM (not active)
EC50 [2]: 0.514 µM (active)

Cc1nnc2ccc(-c3cccc(C(F)(F)F)c3)nn12 [CI-218872]
AC50 (Cytochrome P450 3A4): 31.6 µM (inconclusive)

Cc1cccc(-c2nsc(SCC(=O)N3CCCC3)n2)c1
EC50 [4]: 0.104 µM (active)
EC50 (H4): 0.217 µM (active)

CCCCCCc1cc2cc(C(=O)Nc3ccccc3OC)c(=O)oc2cc1O
EC50 [3]: 1.97 µM (active)

CCOC(=O)c1cc(CC)sc1NC(=O)C(c1ccccc1)c1ccccc1
AC50 (Cytochrome P450 3A4): 11.2 µM (inconclusive)

Cc1ccc(C(C)C)cc1OCC(=O)Nc1ccc(N2CCCCC2)cc1
EC50 [1]: > 16 µM (not active)
EC50 [2]: 2.03 µM (active)

CC(=O)c1sc2nc(-c3ccccc3)cc(C)c2c1N
EC50 [1]: > 60 µM (not active)
EC50 [2]: 0.638 µM (active)

Cc1noc(C)c1C(=O)N1CCC2(CCN(C(=O)NC(C)C)CC2)CC1
AC50 (Cytochrome P450 1A2): 5.01 µM (inconclusive)

O=C(CSc1nc2ccccc2c(=O)n1Cc1ccccc1)NCc1ccco1
AC50 (Cytochrome P450 1A2): 1.41 µM (inconclusive)
AC50 (Cytochrome P450 3A4): 39.8 µM (inconclusive)

COc1ccc(-n2c(=O)cnc3cnc(N4CCNCC4)nc32)cc1
AC50 (Cytochrome P450 2C9): 39.8 µM (inconclusive)

C[C@@H]1C[C@H]2[C@H]3C[C@@H](F)C4=CC(=O)C=C[C@]4(C)[C@@]3(Cl)[C@@H](O)C[C@@]2(C)[C@@H]1C(=O)COC(=O)C(C)(C)C
AC50 (Cytochrome P450 3A4): 0.398 µM (inconclusive)

Cc1cc(C)n(-c2cc(N3CCN(C(=O)c4ccc(C(C)(C)C)cc4)CC3)ccc2[N+](=O)[O-])n1
AC50 (Cytochrome P450 3A4): 35.5 µM (inconclusive)
